Test results published in PMC6333238, “The biosynthetic implications of late-stage condensation domain selectivity during glycopeptide antibiotic biosynthesis” (Chemical Science, 2018).

Key:
Assay in all cases: coupled PPi-release A-domain assay (PPi-PFK/aldolase/TPI/GDH, NADH)
Assay type in all cases: biochemical
Details in all cases: apo-PCP form, 0.5 mM ATP, 1 mM MgCl2, pH 7.4, 0.1 mM EDTA, enzyme 0.5 μM
Tcp12_ΔTE3 = biological target: T1, Tcp12_ΔTE3 (Actinoplanes teichomyceticus, UniProt Q70AZ6)
T1 construct: gene tcp12; with MbtH-like protein Tcp17
Description: coupled PPi-release A-domain assay (PPi-PFK/aldolase/TPI/GDH, NADH) on Tcp12_ΔTE3

Tcp12_ΔTE1 = biological target: T2, Tcp12_ΔTE1 (Actinoplanes teichomyceticus, UniProt Q70AZ6)
T2 construct: gene tcp12; with MbtH-like protein Tcp17
Description: coupled PPi-release A-domain assay (PPi-PFK/aldolase/TPI/GDH, NADH) on Tcp12_ΔTE1

Tcp12_ΔTE2 = biological target: T3, Tcp12_ΔTE2 (Actinoplanes teichomyceticus, UniProt Q70AZ6)
T3 construct: gene tcp12; with MbtH-like protein Tcp17
Description: coupled PPi-release A-domain assay (PPi-PFK/aldolase/TPI/GDH, NADH) on Tcp12_ΔTE2

T2 sequence (Q70AZ6 entry or part of it, stated change not applied): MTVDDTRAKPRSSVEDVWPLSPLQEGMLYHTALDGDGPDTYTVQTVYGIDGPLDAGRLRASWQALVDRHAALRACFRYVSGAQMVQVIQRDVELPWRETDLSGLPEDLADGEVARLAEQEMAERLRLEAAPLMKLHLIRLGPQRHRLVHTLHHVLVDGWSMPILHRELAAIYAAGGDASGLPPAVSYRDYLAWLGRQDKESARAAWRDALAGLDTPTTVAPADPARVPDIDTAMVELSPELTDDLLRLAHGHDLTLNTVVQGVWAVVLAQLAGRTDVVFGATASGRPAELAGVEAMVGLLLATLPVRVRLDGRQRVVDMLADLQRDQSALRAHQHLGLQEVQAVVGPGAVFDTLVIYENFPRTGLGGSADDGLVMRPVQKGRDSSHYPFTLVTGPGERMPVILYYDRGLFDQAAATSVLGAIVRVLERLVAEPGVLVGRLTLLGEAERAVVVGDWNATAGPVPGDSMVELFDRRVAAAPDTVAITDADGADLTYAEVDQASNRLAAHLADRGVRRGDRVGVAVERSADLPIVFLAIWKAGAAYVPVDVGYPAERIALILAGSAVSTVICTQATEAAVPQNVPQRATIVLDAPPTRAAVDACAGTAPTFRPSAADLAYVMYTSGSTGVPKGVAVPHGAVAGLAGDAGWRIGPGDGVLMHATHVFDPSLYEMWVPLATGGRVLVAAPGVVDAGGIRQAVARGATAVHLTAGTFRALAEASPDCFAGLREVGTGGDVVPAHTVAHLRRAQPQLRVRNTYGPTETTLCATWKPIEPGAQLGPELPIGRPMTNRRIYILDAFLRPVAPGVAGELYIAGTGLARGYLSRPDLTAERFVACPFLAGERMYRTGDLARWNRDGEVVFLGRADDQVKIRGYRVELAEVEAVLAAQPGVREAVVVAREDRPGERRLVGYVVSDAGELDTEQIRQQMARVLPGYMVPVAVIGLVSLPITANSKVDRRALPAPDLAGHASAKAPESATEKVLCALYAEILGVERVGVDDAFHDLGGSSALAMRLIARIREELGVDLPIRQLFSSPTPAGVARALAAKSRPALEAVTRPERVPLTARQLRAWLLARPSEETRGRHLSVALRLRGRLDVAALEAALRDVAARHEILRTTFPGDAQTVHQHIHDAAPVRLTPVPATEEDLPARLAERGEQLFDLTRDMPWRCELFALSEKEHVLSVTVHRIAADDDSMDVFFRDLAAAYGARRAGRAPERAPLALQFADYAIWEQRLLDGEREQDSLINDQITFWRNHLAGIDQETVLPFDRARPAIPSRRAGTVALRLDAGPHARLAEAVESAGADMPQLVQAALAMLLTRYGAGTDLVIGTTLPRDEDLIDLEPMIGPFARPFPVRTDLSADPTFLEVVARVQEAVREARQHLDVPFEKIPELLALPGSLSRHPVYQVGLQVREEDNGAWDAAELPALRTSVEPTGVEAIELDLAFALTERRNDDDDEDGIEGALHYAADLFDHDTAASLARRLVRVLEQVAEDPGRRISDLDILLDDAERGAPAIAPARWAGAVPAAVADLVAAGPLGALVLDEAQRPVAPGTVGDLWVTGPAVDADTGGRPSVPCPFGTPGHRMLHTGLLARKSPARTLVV
T2 sequence (Q70AZ1 entry or part of it, stated change not applied, further chain): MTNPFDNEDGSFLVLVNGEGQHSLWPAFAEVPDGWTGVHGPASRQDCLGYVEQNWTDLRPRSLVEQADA
T1 sequence (Q70AZ6 entry or part of it, stated change not applied): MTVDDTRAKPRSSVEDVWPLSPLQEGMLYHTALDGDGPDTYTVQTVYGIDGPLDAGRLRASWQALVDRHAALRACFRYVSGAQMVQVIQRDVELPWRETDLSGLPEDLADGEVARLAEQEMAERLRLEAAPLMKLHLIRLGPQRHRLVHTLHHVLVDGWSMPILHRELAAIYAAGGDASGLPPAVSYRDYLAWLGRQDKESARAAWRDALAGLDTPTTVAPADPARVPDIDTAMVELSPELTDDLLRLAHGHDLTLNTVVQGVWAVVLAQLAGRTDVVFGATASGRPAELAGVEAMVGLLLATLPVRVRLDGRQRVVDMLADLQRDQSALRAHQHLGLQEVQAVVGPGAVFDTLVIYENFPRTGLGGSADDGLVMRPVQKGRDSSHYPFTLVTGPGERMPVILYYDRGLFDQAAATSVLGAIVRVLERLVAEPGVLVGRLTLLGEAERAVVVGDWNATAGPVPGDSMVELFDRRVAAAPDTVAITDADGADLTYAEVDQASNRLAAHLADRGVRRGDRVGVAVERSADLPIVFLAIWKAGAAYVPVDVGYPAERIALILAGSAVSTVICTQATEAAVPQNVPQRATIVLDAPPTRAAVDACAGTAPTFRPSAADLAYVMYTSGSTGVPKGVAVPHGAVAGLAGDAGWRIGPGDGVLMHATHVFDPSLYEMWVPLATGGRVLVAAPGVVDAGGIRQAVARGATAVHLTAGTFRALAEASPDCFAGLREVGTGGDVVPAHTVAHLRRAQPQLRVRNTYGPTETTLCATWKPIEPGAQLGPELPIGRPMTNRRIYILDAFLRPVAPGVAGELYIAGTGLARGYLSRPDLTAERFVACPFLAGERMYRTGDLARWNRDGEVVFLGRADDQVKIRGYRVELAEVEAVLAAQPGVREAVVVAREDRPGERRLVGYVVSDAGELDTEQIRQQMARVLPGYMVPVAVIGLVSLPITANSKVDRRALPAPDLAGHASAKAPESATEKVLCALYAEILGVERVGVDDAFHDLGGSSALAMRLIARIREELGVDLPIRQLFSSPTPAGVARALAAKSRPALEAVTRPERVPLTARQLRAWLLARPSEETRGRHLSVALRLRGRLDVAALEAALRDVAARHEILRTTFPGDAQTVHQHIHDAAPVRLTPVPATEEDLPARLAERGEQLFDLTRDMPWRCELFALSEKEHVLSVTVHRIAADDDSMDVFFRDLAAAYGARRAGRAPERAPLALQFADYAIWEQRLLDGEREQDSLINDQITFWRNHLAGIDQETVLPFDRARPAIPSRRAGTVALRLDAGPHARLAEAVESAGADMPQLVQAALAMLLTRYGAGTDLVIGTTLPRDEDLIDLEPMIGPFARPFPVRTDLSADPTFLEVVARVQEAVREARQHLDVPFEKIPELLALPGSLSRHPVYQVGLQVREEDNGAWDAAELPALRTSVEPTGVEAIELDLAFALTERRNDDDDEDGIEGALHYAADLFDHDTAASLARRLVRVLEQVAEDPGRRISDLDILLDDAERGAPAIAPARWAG
T1 sequence (Q70AZ1 entry or part of it, stated change not applied, further chain): as the sequence (Q70AZ1 entry or part of it, stated change not applied, further chain) above
T3 sequence (Q70AZ6 entry or part of it, stated change not applied): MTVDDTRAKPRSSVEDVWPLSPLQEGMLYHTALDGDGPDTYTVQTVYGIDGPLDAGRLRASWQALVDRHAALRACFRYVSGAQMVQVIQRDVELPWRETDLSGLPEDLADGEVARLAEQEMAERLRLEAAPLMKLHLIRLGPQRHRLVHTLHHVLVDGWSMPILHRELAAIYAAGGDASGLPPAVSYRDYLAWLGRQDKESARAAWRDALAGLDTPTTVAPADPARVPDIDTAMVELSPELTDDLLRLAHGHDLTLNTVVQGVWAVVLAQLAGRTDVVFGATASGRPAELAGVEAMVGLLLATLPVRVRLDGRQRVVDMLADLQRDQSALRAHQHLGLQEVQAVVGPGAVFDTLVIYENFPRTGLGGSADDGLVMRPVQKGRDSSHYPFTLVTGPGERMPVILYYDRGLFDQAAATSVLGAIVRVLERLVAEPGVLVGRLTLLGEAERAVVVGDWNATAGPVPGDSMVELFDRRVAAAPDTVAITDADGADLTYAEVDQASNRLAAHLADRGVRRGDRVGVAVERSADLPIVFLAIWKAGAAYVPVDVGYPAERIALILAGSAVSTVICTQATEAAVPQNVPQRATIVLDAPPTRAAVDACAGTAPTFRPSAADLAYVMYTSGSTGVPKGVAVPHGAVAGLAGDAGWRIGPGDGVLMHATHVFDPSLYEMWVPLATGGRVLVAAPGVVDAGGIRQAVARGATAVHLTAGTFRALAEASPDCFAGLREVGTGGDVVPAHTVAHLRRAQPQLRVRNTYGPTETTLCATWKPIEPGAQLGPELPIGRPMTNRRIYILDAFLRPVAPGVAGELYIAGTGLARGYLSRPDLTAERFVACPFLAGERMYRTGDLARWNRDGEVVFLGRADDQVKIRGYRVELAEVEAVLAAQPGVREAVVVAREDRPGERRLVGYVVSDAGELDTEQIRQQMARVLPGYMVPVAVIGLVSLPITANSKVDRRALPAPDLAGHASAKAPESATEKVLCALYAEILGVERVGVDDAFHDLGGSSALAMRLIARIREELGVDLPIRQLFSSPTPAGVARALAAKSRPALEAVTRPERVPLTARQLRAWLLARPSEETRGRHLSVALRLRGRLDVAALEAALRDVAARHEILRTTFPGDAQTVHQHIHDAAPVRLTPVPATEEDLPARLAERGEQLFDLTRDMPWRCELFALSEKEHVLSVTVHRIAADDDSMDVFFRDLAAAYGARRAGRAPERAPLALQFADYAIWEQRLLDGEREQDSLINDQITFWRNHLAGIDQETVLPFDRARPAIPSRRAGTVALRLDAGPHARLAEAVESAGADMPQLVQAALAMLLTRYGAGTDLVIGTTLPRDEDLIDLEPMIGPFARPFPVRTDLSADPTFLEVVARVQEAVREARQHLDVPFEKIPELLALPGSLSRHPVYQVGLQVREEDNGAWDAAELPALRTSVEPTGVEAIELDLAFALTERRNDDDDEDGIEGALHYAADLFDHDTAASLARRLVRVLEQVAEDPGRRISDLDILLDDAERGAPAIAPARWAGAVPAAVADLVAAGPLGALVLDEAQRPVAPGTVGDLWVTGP
T3 sequence (Q70AZ1 entry or part of it, stated change not applied, further chain): as the sequence (Q70AZ1 entry or part of it, stated change not applied, further chain) above

Km (Tcp12_ΔTE3): 8 ± 0.6 µM
Km (Tcp12_ΔTE1): 6 ± 0.6 µM
Km (Tcp12_ΔTE2): 10 ± 0.9 µM
Structure (SMILES): N[C@H](C(=O)O)c1cc(O)cc(O)c1 [Dpg, (S)-3,5-dihydroxyphenylglycine]
